MIC data for three compounds are collected here from paper PMC10302868 (Molecules, 2023).

In brackets after ≈: the same amount, converted by molar mass.

Assay [1] has as its system S. aureus ATCC 29213 (MSSA). Description: MIC determination. It is filed as cell-based. To be noted: Staphylococcus aureus.
For assay [2], the system named is S. aureus ATCC 700698 (MRSA). Description: MIC determination. It is filed as cell-based. To be noted: Staphylococcus aureus.
The subject of assay [3] is S. aureus SAU-0167 (MRSA). Description: MIC determination. The following applies: Staphylococcus aureus. The class given is cell-based.
In assay [4] the test system is S. aureus SAU-9922 (MRSA). Description: MIC determination. The class given is cell-based. To be noted: Staphylococcus aureus.
The test system of another assay is S. epidermidis SEP-1024. Description: MIC determination. It is filed as cell-based. To be noted: Staphylococcus epidermidis, SEP1024.
The subject of a further assay is S. pneumoniae SPN-1169. Description: MIC determination. To be noted: Streptococcus pneumoniae, SPN1169. It is filed as cell-based.
The next assay deals with S. pyogenes SPY-0253. Description: MIC determination. The class given is cell-based. The following applies: Streptococcus pyogenes, SPY0253.
Assay [5] concerns E. faecium EFA-0221 (VRE). Description: MIC determination. The class given is cell-based. To be noted: Enterococcus faecium.
A further assay relates to E. faecalis EFA-1299. Description: MIC determination. It is filed as cell-based. To be noted: Enterococcus faecalis, EFA1299.
In the next assay the test system is E. faecalis ATCC 29212. Description: MIC determination. The following applies: Enterococcus faecalis, ATCC29212. It is filed as cell-based.
For another assay, the system named is H. influenzae ATCC 49247. Description: MIC determination. It is filed as cell-based. To be noted: Haemophilus influenzae, ATCC49247.
In the next assay the test system is A. baumannii ATCC 17978. Description: MIC determination. The following applies: Acinetobacter baumannii, ATCC17978. The class given is cell-based.
The test system of assay [6] is A. baumannii ATCC BAA-1605. Description: MIC determination. The class given is cell-based. The following applies: Acinetobacter baumannii, ATCCBAA1605.
The subject of assay [7] is K. pneumoniae ATCC BAA-1705. Description: MIC determination. The class given is cell-based. The following applies: Klebsiella pneumoniae, ATCCBAA1705.
A further assay deals with P. aeruginosa ATCC 27853. Description: MIC determination. To be noted: Pseudomonas aeruginosa, ATCC27853. The class given is cell-based.
The next assay deals with E. coli ATCC 25922. Description: MIC determination. To be noted: Escherichia coli, ATCC25922. The class given is cell-based.
In a further assay the test system is S. maltophilia STM-0001. Description: MIC determination. The class given is cell-based. To be noted: Stenotrophomonas maltophilia, STM0001.
Assay [8] deals with M. tuberculosis H37Rv ATCC27294. Description: MIC determination (Microplate Alamar Blue Assay). The class given is cell-based, Mycobacterium tuberculosis. The following applies: Mycobacterium tuberculosis, 168 h, M. tuberculosis H37Rv ATCC27294, 7 days; read-out: MIC.
Assay [9] relates to M. bovis BCG (Pasteur 1173P2). Description: microbe, parasite or virus in culture. The class given is cell-based. To be noted: Mycobacterium tuberculosis variant bovis BCG, 168 h.
Another assay deals with M. smegmatis mc^2155. Description: MIC determination (Microplate Alamar Blue Assay). To be noted: Mycolicibacterium smegmatis; M. smegmatis mc^2155, 72 h. The class given is cell-based. On the technique in general: Alamar Blue is a resazurin reagent that responds to reducing activity.
A further assay has as its system M. abscessus-GDI. Description: MIC determination (Microplate Alamar Blue Assay). The following applies: Mycobacteroides abscessus, 72 h. It is filed as cell-based, Mycobacterium abscessus.
A further assay has as its system M. abscessus-C16. Description: MIC determination (Microplate Alamar Blue Assay). The class given is cell-based, Mycobacterium abscessus. To be noted: Mycobacteroides abscessus; M. abscessus-C16, 72 h.
The subject of a further assay is M. abscessus-C28. Description: MIC determination (Microplate Alamar Blue Assay). It is filed as cell-based, Mycobacterium abscessus. The following applies: Mycobacteroides abscessus, 72 h.
A further assay has as its system M. abscessus-C58. Description: MIC determination (Microplate Alamar Blue Assay). It is filed as cell-based, Mycobacterium abscessus. To be noted: Mycobacteroides abscessus; M. abscessus-C58, 72 h.

In the case of `CO[C@H]1/C=C/O[C@@]2(C)Oc3c(C)c(O)c4c(O)c(c(/C=N/N5CCN(C)CC5)c(O)c4c3C2=O)NC(=O)/C(C)=C\C=C\[C@H](C)[C@H](O)[C@@H](C)[C@@H](O)[C@@H](C)[C@H](OC(C)=O)[C@@H]1C` [Rifampicin], the MIC in [1] is 0.0063 µg/mL (≈ 0.00766 µM); in [2], at most 0.031 µg/mL; in [3], at most 0.031 µg/mL; in assay [4], at most 0.031 µg/mL; against S. epidermidis SEP-1024 it was at most 0.031 µg/mL; in the assay with S. pneumoniae SPN-1169, at most 0.031 µg/mL. In addition, the MIC in the assay with S. pyogenes SPY-0253 came to 0.063 µg/mL (≈ 0.0766 µM); in assay [5], 4 µg/mL (≈ 4.86 µM); in the assay with E. faecalis EFA-1299, 1 µg/mL (≈ 1.22 µM); in the assay with E. faecalis ATCC 29212 it was 2 µg/mL (≈ 2.43 µM); against H. influenzae ATCC 49247, 0.25 µg/mL (≈ 0.304 µM); against A. baumannii ATCC 17978, 2 µg/mL (≈ 2.43 µM). In addition, the MIC in [6] is 4 µg/mL (≈ 4.86 µM); in assay [7], over 32 µg/mL; in the assay with P. aeruginosa ATCC 27853 it was over 32 µg/mL; with E. coli ATCC 25922, 8 µg/mL (≈ 9.72 µM); in the assay on S. maltophilia STM-0001, 16 µg/mL (≈ 19.4 µM); in assay [8] it was 0.031 µg/mL (≈ 0.0377 µM). Further, the MIC is at most 0.031 µg/mL in [9]; 13.3 µg/mL (≈ 16.1 µM) in the assay on M. smegmatis mc^2155; over 20 µg/mL with M. abscessus-GDI; over 20 µg/mL in the assay with M. abscessus-C16; over 20 µg/mL in the assay with M. abscessus-C28; over 20 µg/mL against M. abscessus-C58.

On to `NCC[C@H](O)C(=O)N[C@@H]1C[C@H](N)[C@@H](O[C@H]2O[C@H](CN)[C@@H](O)[C@H](O)[C@H]2O)[C@H](O)[C@H]1O[C@H]1O[C@H](CO)[C@@H](O)[C@H](N)[C@H]1O` [Amikacin], for which the MIC is 8 µg/mL (≈ 13.7 µM) in [1]; over 32 µg/mL in [2]; over 32 µg/mL in assay [3]; 2 µg/mL (≈ 3.42 µM) in [4]; at most 1 µg/mL in the assay on S. epidermidis SEP-1024; over 32 µg/mL with S. pneumoniae SPN-1169. Moreover, the MIC against S. pyogenes SPY-0253 was 32 µg/mL (≈ 54.6 µM); in assay [5] it was over 32 µg/mL; in the assay with E. faecalis EFA-1299, over 32 µg/mL; in the assay with E. faecalis ATCC 29212 it was over 32 µg/mL; with A. baumannii ATCC 17978, 2 µg/mL (≈ 3.42 µM); in assay [7], over 32 µg/mL. The MIC against P. aeruginosa ATCC 27853 was 8 µg/mL (≈ 13.7 µM); against E. coli ATCC 25922 it was 8 µg/mL (≈ 13.7 µM); against S. maltophilia STM-0001, over 32 µg/mL; in the assay on M. abscessus-GDI it was 6.38 µg/mL (≈ 10.9 µM); against M. abscessus-C16, 12.7 µg/mL (≈ 21.7 µM); against M. abscessus-C28 it was 14.5 µg/mL (≈ 24.7 µM). This compound showed an MIC in the assay with M. abscessus-C58 of 12.8 µg/mL (≈ 21.9 µM).

On to `O=C(O)c1cn(C2CC2)c2cc(N3CCNCC3)c(F)cc2c1=O` [Ciproflox, Ciprofloxacin], for which the MIC was over 32 µg/mL in assay [3]; over 32 µg/mL in [4]; 0.25 µg/mL (≈ 0.754 µM) in the assay on S. epidermidis SEP-1024; 1 µg/mL (≈ 3.02 µM) in the assay with S. pneumoniae SPN-1169; 0.25 µg/mL (≈ 0.754 µM) against S. pyogenes SPY-0253; over 32 µg/mL in assay [5]. The MIC is 0.25 µg/mL (≈ 0.754 µM) against E. faecalis EFA-1299, at most 0.031 µg/mL against H. influenzae ATCC 49247, over 32 µg/mL in assay [6] and 2 µg/mL (≈ 6.04 µM) in the assay on S. maltophilia STM-0001.
